Assay results as given in patent publication US20170273985A1, “TRICYCLIC DERIVATIVE” (Sunovion Pharmaceuticals Inc., priority 2014, published 2017).

Biological target: PDE1B (Homo sapiens, UniProt Q01064)
Assay: In vitro HTRF PDE1 inhibition assay (PDE1B)
Format: biochemical
Source text: An exemplary procedure for the in vitro Homogenous Time Resolved Fluorescence assay, which can be used to determine the inhibitory action of compounds of the invention toward PDE1 or its isoforms, follows. The HTRF PDE1 assay utilized the HTRF (Homogenous Time Resolved Fluorescence) technology, which is based on the competition between unlabeled cyclic nucleotide and cyclic nucleotide labeled with XL665 for the binding to cyclic nucleotide-specific antibody labeled with cryptate. The HTRF signal is thus inversely proportional to the concentration of cyclic nucleotide being measured. Since phosphodiesterases break down cyclic nucleotides the HTRF signal was used to determine PDE activity. The Cisbio cGMP HTRF assay kit (Cat no: 62GM2PEC) was utilized. Cyclic GMP was diluted to 200 nM in HTRF assay buffer (1 mM CaCl2, 10 mM MgCl2, 10 mM Tris-HCl, 0.1% BSA, pH 7.4). 10 μl of compound or DMSO was diluted in 200 nM cyclic GMP solution and added to wells of a 96 well white plate to give 100 nM cyclic GMP in 1% DMSO final concentration. PDE (1A3, 1B or IC) was diluted to 2× working concentration in HTRF assay buffer with 2 μg/ml calmodulin, and 10 μl was added to initiate the reaction. The plate was then incubated for 45 minutes at 37° C. d2-Labelled cyclic GMP and anti-cGMP cryptate were diluted in 50 mM phosphate buffer, 0.8 M KF, 1% Triton X100, 0.2% BSA, pH 7.0. Following incubation 10 μl d2-cGMP, then 10 μl anti cGMP cryptate were added to each well and the plate was incubated for 45 minutes at room temperature. The plate was then read on Perkin Elmer Victor at 2 different FRET readings ex/emm 340 nm/665 nm and 340 nm/615 nm. Compounds having an IC50 of <1 μM, are denoted as +++. Compounds having an IC50 of 1−10 μM, are denoted as ++. Compounds having an IC50 of 10-100 μM, are denoted as +.

Compound	IC50 (Table 22) [nM]	IC50 (Table 25) [nM]
O=c1c2cnc(C3CCOCC3)n2nc2n1CCN2CC1CC1(F)F (racemic) [Example 176]		< 1000
CC(C)c1ncc2c(=O)n3c(nn12)N(CC(=O)N1CCOCC1)CCC3 [Example 28]	1000 to 10000	
CC(C)c1ncc2c(=O)n3c(nn12)N(CCc1ccncc1)CCC3 [Example 41]	< 1000	
CC(C)c1ncc2c(=O)n3c(nn12)N(CCc1cccnc1)CCC3 [Example 42]	< 1000	
CC(C)c1ncc2c(=O)n3c(nn12)N(CCc1ccccc1F)CCC3 [Example 43]	< 1000	
CC(C)c1ncc2c(=O)n3c(nn12)N(CCc1cccc(F)c1)CCC3 [Example 44]	< 1000	
CC(C)c1ncc2c(=O)n3c(nn12)N(CCc1ccc(F)cc1)CCC3 [Example 45]	< 1000	
CC(C)c1ncc2c(=O)n3c(nn12)N(CCCc1ccccc1F)CCC3 [Example 46]	< 1000	
CC(C)c1ncc2c(=O)n3c(nn12)N(CCCc1ccc(F)cc1)CCC3 [Example 47]	< 1000	
COc1ccccc1CCCN1CCCn2c1nn1c(C(C)C)ncc1c2=O [Example 48]	< 1000	
COc1cccc(CCCN2CCCn3c2nn2c(C(C)C)ncc2c3=O)c1 [Example 49]	< 1000	
COc1ccc(CCCN2CCCn3c2nn2c(C(C)C)ncc2c3=O)cc1 [Example 50]	1000 to 10000	
CC(C)c1ncc2c(=O)n3c(nn12)N(CC1CCOCC1)CCCC3 [Example 51]	< 1000	
CC(C)c1ncc2c(=O)n3c(nn12)N(Cc1ccc(C#N)cc1)CCCC3 [Example 52]	< 1000	
CCCCN1CCn2c1nn1c(C3CCOCC3)ncc1c2=O [Example 53]	< 1000	
O=c1c2cnc(C3CCOCC3)n2nc2n1CCN2CCC1CCCC1 [Example 54]	< 1000	
O=c1c2cnc(C3CCOCC3)n2nc2n1CCN2CCc1ccc(F)cc1 [Example 57]	< 1000	
N#Cc1ccc(CCN2CCn3c2nn2c(C4CCOCC4)ncc2c3=O)cc1 [Example 58]	< 1000	
N#Cc1cccc(CN2CCCn3c2nn2c(C4CCOCC4)ncc2c3=O)c1 [Example 60]	< 1000	

Compound	IC50 (Table 22) [nM]	IC50 (Table 25) [nM]
N#Cc1ccc(CN2CCCn3c2nn2c(C4CCOCC4)ncc2c3=O)cc1 [Example 61]	1000 to 10000	
O=c1c2cnc(C3CCOCC3)n2nc2n1CCCN2CCc1ccccc1 [Example 62]	< 1000	
O=c1c2cnc(C3CCOCC3)n2nc2n1CCCN2CCCc1ccccc1 [Example 63]	< 1000	
CC1CN(Cc2ccc(C#N)cc2)c2nn3c(C(C)C)ncc3c(=O)n2C1 (centres unmarked) [Example 65]	< 1000	
CCCN1c2nn3c(C4CCOCC4)ncc3c(=O)n2CC[C@@H]1c1ccc(Cl)cc1 [Example 71]	< 1000	
CC(C)c1ncc2c(=O)n3c(nn12)N(C)C(c1ccc(Cl)cc1)CC3 (centres unmarked) [Example 72]	< 1000	
CC(C)n1ncc2c(=O)n3c(nc21)N(CC1CCOCC1)CC3 [Example 73]	< 1000	
CC(C)n1ncc2c(=O)n3c(nc21)N(Cc1ccc(C#N)cc1)CC3 [Example 74]	< 1000	
CC(C)n1ncc2c(=O)n3c(nc21)N(Cc1ccc(-c2cccc(F)n2)cc1)CC3 [Example 76]	< 1000	
CC(C)CN1CCCn2c1nc1c(cnn1C(C)C)c2=O [Example 77]	< 1000	
CC(C)n1ncc2c(=O)n3c(nc21)N(Cc1ccc(C(F)(F)F)cc1)CCC3 [Example 80]	< 1000	
CC(C)c1ncnc2c(=O)n3c(nc12)N(Cc1ccc(C#N)cc1)CC3 [Example 82]	< 1000	
CC(C)c1ncnc2c(=O)n3c(nc12)N(Cc1ccc(C(F)(F)F)cc1)CC3 [Example 83]	< 1000	
CC(C)c1ncc2c(=O)n3c(nn12)N(C)[C@@H](c1ccc(Cl)cn1)C3 [Example 84, (R)-2-(5-Chloropyridin-2-yl)-8-isopropyl-1-methyl-2,3-dihydrodiimidazo[2,1-c:1′,5′-f][1,2,4]triazin-5(1H)-one]	< 1000	
CC(C)c1ncc2c(=O)n3c(nn12)N(C)[C@H](c1ccc(Cl)cn1)C3 [Example 85, (S)-2-(5-Chloropyridin-2-yl)-8-isopropyl-1-methyl-2,3-dihydrodiimidazo[2,1-c:1′,5′-f][1,2,4]triazin-5(1H)-one]	< 1000	
COc1ccc(C2Cn3c(nn4c(C5CCOCC5)ncc4c3=O)N2C)cc1 (centres unmarked) [Example 86]	< 1000	
COc1ccc(C2Cn3c(nn4c(C5CCOCC5)ncc4c3=O)N2C)cc1 (centres unmarked) [Example 87]	1000 to 10000	
CCc1ccc(C2Cn3c(nn4c(C5CCOCC5)ncc4c3=O)N2CC)cn1 (centres unmarked) [Example 88]	< 1000	
CCc1ccc([C@@H]2Cn3c(nn4c(C5CCOCC5)ncc4c3=O)N2CC)cn1 [Example 89]	1000 to 10000	

Other lines, results leading:

IC50 (Table 22) [nM]	IC50 (Table 25) [nM]	Compound
< 1000		2-(4-chlorophenyl)-8-isopropyl-2H-imidazo[1,5-f]oxazolo[2,3-c][1,2,4]triazin-5(3H)-one [Example 133]
< 1000		CCCN1c2nn3c(C4CCOCC4)ncc3c(=O)n2CC1c1ccc(OC)cc1 (racemic) [Example 67]
< 1000		CN1c2nn3c(C4CCOCC4)ncc3c(=O)n2CC1c1ccc(Cl)cc1 (racemic) [Example 68]
< 1000		CCc1ccc(C2Cn3c(nn4c(C(C)C)ncc4c3=O)N2CC)cn1 (single isomer, unassigned) [Example 94]
< 1000		CC(C)c1ncc2c(=O)n3c(nn12)N(Cc1ccccc1)CCC3 [Example 2, 1-Benzyl-9-isopropyl-1,2,3,4-tetrahydro-6H-imidazo[5,1-f]pyrimido[2,1-c][1,2,4]triazin-6-one]
< 1000		CC(C)c1ncc2c(=O)n3c(nn12)N(CC1CCOCC1)C(C)CC3 (centres unmarked) [Example 3, 11-Methyl-10-(oxan-4-ylmethyl)-6-(propan-2-yl)-1,5,7,8,10-pentaazatricyclo[7,4,0,0,3,7]trideca-3,5,8-trien-2-one]
< 1000		CC(C)c1ncc2c(=O)n3c(nn12)N(CCC1CCOCC1)CC3 [Example 4]
< 1000		CC(C)c1ncc2c(=O)n3c(nn12)N(CCCC1CCOCC1)CC3 [Example 5]
< 1000		COCCCN1CCn2c1nn1c(C(C)C)ncc1c2=O [Example 6]
< 1000		COCCCCN1CCn2c1nn1c(C(C)C)ncc1c2=O [Example 7]
< 1000		COCCCCCN1CCn2c1nn1c(C(C)C)ncc1c2=O [Example 8]
< 1000		CC(C)c1ncc2c(=O)n3c(nn12)N(CCc1ccccn1)CC3 [Example 10]
< 1000		CC(C)c1ncc2c(=O)n3c(nn12)N(CCCc1cccnc1)CC3 [Example 12]
< 1000		CC(C)c1ncc2c(=O)n3c(nn12)N(CCCc1ccncc1)CC3 [Example 13]
< 1000		CC(C)c1ncc2c(=O)n3c(nn12)N(C)CCC3 [Example 14]
< 1000		CCCN1CCCn2c1nn1c(C(C)C)ncc1c2=O [Example 15]
< 1000		CCCCN1CCCn2c1nn1c(C(C)C)ncc1c2=O [Example 17]
< 1000		CCCCCN1CCCn2c1nn1c(C(C)C)ncc1c2=O [Example 18]

IC50 (Table 22) [nM]	IC50 (Table 25) [nM]	Compound
< 1000		CC(C)CCN1CCCn2c1nn1c(C(C)C)ncc1c2=O [Example 19]
< 1000		CC(C)c1ncc2c(=O)n3c(nn12)N(CCC1CC1)CCC3 [Example 20]
< 1000		CC(C)c1ncc2c(=O)n3c(nn12)N(CCC1CCC(F)(F)CC1)CCC3 [Example 21]
< 1000		CC(C)c1ncc2c(=O)n3c(nn12)N(CCOC(F)(F)F)CCC3 [Example 22]
< 1000		COCCN1CCCn2c1nn1c(C(C)C)ncc1c2=O [Example 23]
< 1000		CC(C)c1ncc2c(=O)n3c(nn12)N(CCN1CCOCC1)CCC3 [Example 26]
< 1000		CC(C)c1ncc2c(=O)n3c(nn12)N(CCCN1CCOCC1)CCC3 [Example 27]
< 1000		CC(C)c1ncc2c(=O)n3c(nn12)N(CCCC1CCOCC1)CCC3 [Example 29]
< 1000		CC(C)c1ncc2c(=O)n3c(nn12)N(Cc1ccc(Cl)cc1)CCC3 [Example 31]
< 1000		CC(C)c1ncc2c(=O)n3c(nn12)N(Cc1cccc(C(F)(F)F)c1)CCC3 [Example 32]
< 1000		CC(C)c1ncc2c(=O)n3c(nn12)N(Cc1cccc(Cl)c1)CCC3 [Example 33]
< 1000		CC(C)c1ncc2c(=O)n3c(nn12)N(Cc1ccc(C(F)(F)F)cc1)CCC3 [Example 34]
< 1000		CC(C)c1ncc2c(=O)n3c(nn12)N(Cc1ccncc1)CCC3 [Example 35]
< 1000		CC(C)c1ncc2c(=O)n3c(nn12)N(Cc1cccnc1)CCC3 [Example 36]
< 1000		CC(C)c1ncc2c(=O)n3c(nn12)N(Cc1cccc(C#N)c1)CCC3 [Example 37]
< 1000		CC(C)c1ncc2c(=O)n3c(nn12)N(CCc1ccc(C#N)cc1)CCC3 [Example 38]
< 1000		CC(C)c1ncc2c(=O)n3c(nn12)N(CCCc1ccncc1)CCC3 [Example 39]
< 1000		CC(C)c1ncc2c(=O)n3c(nn12)N(CCCc1cccnc1)CCC3 [Example 40]
